Results taken from patent US20090068290A1, “BIFEPRUNOX DOSES FOR TREATING SCHIZOPHRENIA” (priority 2006, published 2009).

What was measured:
Type in all cases: in vivo, human
[1] = test system: adult subjects with schizophrenia; assay: PANSS total score, Clinical Study Three (6-week, olanzapine-referenced); settings: Olanzapine 15 mg, LOCF, ITT
Procedure: There were four treatment arms in this study, approximately 144 subjects per arm. […] After completing the Single-Blind Placebo Lead-in Period of at least three days, bifeprunox-treated subjects were titrated from 0.25 mg up to 20 mg/day or 30 mg/day according to a standardized titration scheme over a seven- or eight-day period, respectively. When the assigned dose was reached, subjects were maintained at that dose for the remainder of the six week treatment period. […] Subjects were hospitalized (if not already inpatients) after eligibility for study entry was verified, starting from the Screening Visit until at least 10 days after Baseline. Subjects could be hospitalized longer than 10 days if considered medically necessary by the Investigator. Rating scale assessments for efficacy and abnormal movement disorders were done weekly except for Week 5. Safety assessments were performed at Screening, during treatment and at the end of the study. Subject satisfaction with study medication was assessed at Week 6. Samples of whole blood were obtained at Weeks 2, 4, and 6 for determination of bifeprunox in plasma.
Test Product, Dose and Mode of Administration: Bifeprunox tablets, total daily dose 20 mg or 30 mg (one 20 mg tablet and one 10 mg tablet) administered orally using a once daily dosing regimen.

[2] = test system: adult subjects with schizophrenia; assay: Adverse events (TEAE, SAE, special interest, EPS-related TEAE), Clinical Study Two; settings: Risperidone 6 mg
Procedure: (§1) Subjects who completed this study had the option to continue in the long-term. […] Risperidone-treated subjects were titrated from 2 mg to 6 mg daily over a three-day period and were subsequently maintained at 6 mg/day for the remainder of the treatment period. […] Blood samples were also obtained at Screening/Baseline, Week 3, and Week 6 for clinical laboratory assessments.

[3] = test system: adult subjects with schizophrenia; assay: PANSS responder rate, Clinical Study Two; settings: risperidone 6 mg
Procedure: Notable differences were also observed between the 30 mg bifeprunox group and placebo for the change from baseline to endpoint in PANSS general psychopathology subscale score, BPRS total score, BPRS psychosis cluster score, PANSS responder rate, and CGI-I responder rate. […] A CGI-I responder refers to a subject who was categorized as “very much improved” or “much improved” in the CGI Global Improvement scale at endpoint. […]
as §1, with “assessments. […]” for “assessments.”

[4] = test system: adult subjects with schizophrenia; assay: PANSS positive subscale score, Clinical Study One; settings: Risperidone 6 mg, ITT
Procedure: There were five treatment groups in this study. […] Study medication was administered once daily. After Baseline measurements were performed, the titration phase was begun. Bifeprunox treated subjects were titrated up to 5 mg, 10 mg or 20 mg according to a standardized titration schedule (Day 1: 0.125 mg, Day 2: 0.25 mg, Day 3: 0.5 mg, Day 4: 1.0 mg, Day 5: 2.0 mg, Day 6: 5.0 mg, Day 7: 10.0 mg, Day 8: 20 mg). When the assigned dose was reached, subjects were maintained at that dose for the remainder of the six-week treatment period.
The change in the Positive and Negative Symptom Scale (PANSS) total score, from baseline to endpoint, was the primary outcome measure. Secondary efficacy measures included: PANSS positive, PANSS negative, PANSS general psychopathology (GPP) score, PANSS-derived Brief Psychiatric Rating Scale (BPRS) score, Clinical Global Impressions-Severity of Illness (CGI-S), CGI-Improvement (CGI-I) scores, and responder rates. Safety and tolerability evaluations included extrapyramidal symptoms (EPS), weight gain, lipid profile, and serum prolactin.

Cc1cc2c(s1)Nc1ccccc1N=C2N1CCN(C)CC1 [Olanzapine, olanzapine, reference compound]
Change from Baseline in PANSS Total Score, Mean (SD) ([1]; Week 1): −9.3 (11.2)
Change from Baseline in PANSS Total Score, Median ([1]; Week 1): −6
Change from Baseline in PANSS Total Score, Mean (SD) ([1]; Week 2): −15.1 (13.6)
Change from Baseline in PANSS Total Score, Median ([1]; Week 2): −12
Change from Baseline in PANSS Total Score, Mean (SD) ([1]; Week 3): −19.3 (15.8)
Change from Baseline in PANSS Total Score, Median ([1]; Week 3): −18
Change from Baseline in PANSS Total Score, Mean (SD) ([1]; Week 4): −20.0 (16.5)
Change from Baseline in PANSS Total Score, Median ([1]; Week 4): −18
Change from Baseline in PANSS Total Score, Mean (SD) ([1]; Week 6/Endpoint): −22.0 (18.2)
Change from Baseline in PANSS Total Score, Median ([1]; Week 6/Endpoint): −21

Cc1nc2n(c(=O)c1CCN1CCC(c3noc4cc(F)ccc34)CC1)CCCC2 [Risperidone, risperidone, reference compound]
AKATHISIA, % [2]: (10%)
BRADYKINESIA, % [2]: (1%)
DISTURBANCE IN ATTENTION, % [2]: (1%)
DIZZINESS, % [2]: (6%)
DYSARTHRIA, % [2]: (2%)
DYSKINESIA, % [2]: (<1%)
Dystonia, % [2]: (7%)
EXTRAPYRAMIDAL DISORDER, % [2]: (14%)
HEADACHE NOS, % [2]: (15%)
Hypoaesthesia, % [2]: 1 (<1%)
Memory Impairment, % [2]: 1 (<1%)
NERVOUS SYSTEM DISORDERS, % [2]: (53%)
Parkinsonism, % [2]: 1%
SEDATION, % [2]: 7%
SINUS HEADACHE, % [2]: 1 (<1%)
SOMNOLENCE, % [2]: 6%
TARDIVE DYSKINESIA, % [2]: 2%
TREMOR, % [2]: 5%
incidence of severe TEAE of schizophrenia [2]: 2%
subjects with at least one TEAE [2]: 78%
PANSS 20% responder rate ([3]; Endpoint LOCF): 54%
PANSS 30% responder rate ([3]; Endpoint LOCF): 31%
PANSS Responder at Endpoint, 30% Definition Responder, No ([3]; LOCF, ITT): 104 (69%) n (%)
PANSS Responder at Endpoint, 30% Definition Responder, Yes ([3]; LOCF, ITT): 47 (31%) n (%)
PANSS Responder at Week 6/Endpoint, 20% Definition, No ([3]; LOCF, ITT): 69 (46%) n (%)
PANSS Responder at Week 6/Endpoint, 20% Definition, Yes ([3]; LOCF, ITT): 78 (54%) n (%)
Change from Baseline in PANSS Positive Subscale Score, Mean (S.D.) ([4]; Endpoint LOCF): −5.3 (4.8)
Change from Baseline in PANSS Positive Subscale Score, Median ([4]; Endpoint LOCF): −5
Change from Baseline in PANSS Positive Subscale Score, Mean (S.D.) ([4]; Week 1, LOCF): −2.7 (3.4)
Change from Baseline in PANSS Positive Subscale Score, Median ([4]; Week 1, LOCF): −2
Change from Baseline in PANSS Positive Subscale Score, Mean (S.D.) ([4]; Week 2, LOCF): −4.3 (4.2)
Change from Baseline in PANSS Positive Subscale Score, Median ([4]; Week 2, LOCF): −4
Change from Baseline in PANSS Positive Subscale Score, Mean (S.D.) ([4]; Week 3, LOCF): −5.0 (4.6)
Change from Baseline in PANSS Positive Subscale Score, Median ([4]; Week 3, LOCF): −5
Change from Baseline in PANSS Positive Subscale Score, Mean (S.D.) ([4]; Week 4, LOCF): −4.9 (4.6)
Change from Baseline in PANSS Positive Subscale Score, Median ([4]; Week 4, LOCF): −4
